Data: paper PMC12394658, “Discovery of Zharp1-163 as a dual inhibitor of ferroptosis and necroptosis for the treatment of inflammatory disorders and kidney injury” (Cell Death Discovery, 2025)

Legend:
Assay in all cases: biochemical
Parameters in all cases: Kinase selectivity panel of 81 human kinases, ADP-Glo or HTRF, per cent inhibition at 1 uM
[1] = target: BMX (Homo sapiens, UniProt P51813)
Experimental: (§1) We next sought to determine the binding affinity of Zharp1-163 for RIPK1 or RIPK3 via a binding assay (Fig. 4A). […] Further, we evaluated the selectivity of Zharp1-163 against a panel of 81 kinases (at 1000 nM). […] To elucidate the binding interactions between Zharp1-163 and RIPK1 kinase, we conducted molecular docking studies using the RIPK1 crystal structure (PDB ID: 4NEU). The predicted binding conformations and interaction patterns between Zharp1-163 and the RIPK1 kinase domain are presented in Fig. 4D, E. Like the cocrystallized ligand in the 4NEU crystal complex, Zharp1-163 was predicted to act as a typical type II kinase inhibitor, interacting with the DLG (Asp156-Leu157-Gly158)-out conformation of RIPK1 (Fig. 4D, E). The 2-aminoimidazo [1,2-a] pyridine moiety of Zharp1-163 formed hydrogen bonds with Met95 in the hinge region. Furthermore, the carboxylate group of Zharp1-163 established hydrogen bonds with Asp156 in the DLG-out region. Additionally, the saturated ring of Zharp1-163 was deeply embedded within the hydrophobic allosteric pocket formed by the residues Met66, Met67, Leu70, Val76, Leu129, and Leu159, which is created by the DLG-out conformation in RIPK1 (Fig. 4D, E).  Fig. 4 Zharp1-163 is a selective inhibitor of RIPK1 kinase activity. A Binding affinity curve of Zharp1-163 with RIPK1 and RIPK3. B In an in vitro kinase activity assay, recombinant RIPK1 was incubated with Zharp1-163, after which RIPK1 kinase activity was determined by measuring ATP levels via a luciferase reporter assay system. […] Kinases are marked with dots, where the color of each kinase indicates the level of inhibition achieved by Zharp1-163. D Predicted binding conformation of Zharp1-163. E Schematic representation of the interaction patterns between Zharp1-163 and the key residues in the binding pocket of the RIPK1 kinase. […] NIH3T3-RIPK3 cells were pretreated with the indicated concentrations of Zharp1-163 for 2 h and then treated with AP20187 (100 nM) for 24 h. Cell viability was determined by measuring ATP levels. […] HeLa-MLKL (1–190) cells were pretreated with the indicated concentrations of Zharp1-163 for 2 h and subsequently treated with AP20187 (100 nM) for 24 h. Cell viability was determined by measuring ATP levels. H Viability of IFNβ-primed MEFs at 18 h after stimulation with poly(I:C) plus z-VAD and treatment with Zharp1-163 (10 μM). I Effects of different concentrations of Zharp1-163 on WT or RIPK1 KO HT-29 cells. Cell viability was determined by measuring ATP levels. The data are presented as the mean ± SD of triplicate samples.

[2] = target: T1, CHK2 (Homo sapiens, UniProt O96017)
T1 construct: gene CHEK2
Experimental: as §1

[3] = target: T2, CK1γ3 (Homo sapiens, UniProt Q9Y6M4)
T2 construct: gene CSNK1G3
Experimental: as §1

[4] = target: EGFR (Homo sapiens, UniProt P00533)
Experimental: as §1

[5] = target: EPHA2 (Homo sapiens, UniProt P29317)
Experimental: as §1

[6] = target: T3, Erk2 (Homo sapiens, UniProt P28482)
T3 construct: gene MAPK1
Experimental: as §1

[7] = target: IGF1R (Homo sapiens, UniProt P08069)
Experimental: as §1

[8] = target: MARK1 (Homo sapiens, UniProt Q9P0L2)
Experimental: as §1

[9] = target: MET (Homo sapiens, UniProt P08581)
Experimental: as §1

[10] = target: T4, PKACα (Homo sapiens, UniProt P17612)
T4 construct: gene PRKACA
Experimental: as §1

[11] = target: T5, QIK (Homo sapiens, UniProt Q9H0K1)
T5 construct: gene SIK2
Experimental: as §1

[12] = target: ROCK1 (Homo sapiens, UniProt Q13464)
Experimental: as §1

[13] = target: TAOK1 (Homo sapiens, UniProt Q7L7X3)
Experimental: as §1

[14] = target: T6, TSSK1 (Homo sapiens, UniProt Q9BXA7)
T6 construct: gene TSSK1B
Experimental: as §1

Chain of ROCK1 (Q13464 whole entry): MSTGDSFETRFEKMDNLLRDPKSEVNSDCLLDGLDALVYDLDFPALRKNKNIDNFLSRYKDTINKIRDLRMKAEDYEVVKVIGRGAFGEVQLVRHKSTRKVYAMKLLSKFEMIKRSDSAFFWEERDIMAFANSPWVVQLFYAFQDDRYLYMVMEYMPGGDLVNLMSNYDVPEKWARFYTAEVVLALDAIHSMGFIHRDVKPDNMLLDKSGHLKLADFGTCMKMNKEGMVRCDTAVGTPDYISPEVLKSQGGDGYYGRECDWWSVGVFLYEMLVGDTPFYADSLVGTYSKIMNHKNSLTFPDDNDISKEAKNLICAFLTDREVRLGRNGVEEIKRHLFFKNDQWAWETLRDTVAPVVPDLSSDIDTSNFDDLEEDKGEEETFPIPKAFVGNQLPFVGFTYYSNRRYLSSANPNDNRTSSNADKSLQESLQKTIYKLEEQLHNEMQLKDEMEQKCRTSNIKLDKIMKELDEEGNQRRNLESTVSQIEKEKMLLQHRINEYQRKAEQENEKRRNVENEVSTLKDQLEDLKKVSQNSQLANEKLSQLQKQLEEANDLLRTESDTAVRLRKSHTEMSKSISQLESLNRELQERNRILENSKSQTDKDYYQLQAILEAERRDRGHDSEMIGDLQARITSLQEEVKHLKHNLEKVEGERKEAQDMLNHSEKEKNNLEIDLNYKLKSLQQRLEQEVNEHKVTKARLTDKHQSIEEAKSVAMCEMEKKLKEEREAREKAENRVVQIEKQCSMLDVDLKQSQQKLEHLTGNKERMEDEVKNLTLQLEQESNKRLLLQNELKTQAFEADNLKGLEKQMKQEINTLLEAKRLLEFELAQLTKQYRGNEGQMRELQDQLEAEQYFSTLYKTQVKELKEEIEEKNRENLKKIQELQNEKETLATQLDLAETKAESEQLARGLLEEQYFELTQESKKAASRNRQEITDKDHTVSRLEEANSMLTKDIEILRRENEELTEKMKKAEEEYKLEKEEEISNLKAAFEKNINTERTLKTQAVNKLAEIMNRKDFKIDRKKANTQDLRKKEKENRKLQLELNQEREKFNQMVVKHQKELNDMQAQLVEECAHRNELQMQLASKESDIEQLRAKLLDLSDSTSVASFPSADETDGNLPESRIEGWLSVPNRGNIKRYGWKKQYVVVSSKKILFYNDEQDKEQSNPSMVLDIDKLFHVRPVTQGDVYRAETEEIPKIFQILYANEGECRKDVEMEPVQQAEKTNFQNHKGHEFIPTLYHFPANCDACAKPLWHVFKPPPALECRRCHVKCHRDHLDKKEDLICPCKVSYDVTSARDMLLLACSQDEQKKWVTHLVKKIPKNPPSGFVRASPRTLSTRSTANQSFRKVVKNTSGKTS
Chain of MARK1 (Q9P0L2 whole entry): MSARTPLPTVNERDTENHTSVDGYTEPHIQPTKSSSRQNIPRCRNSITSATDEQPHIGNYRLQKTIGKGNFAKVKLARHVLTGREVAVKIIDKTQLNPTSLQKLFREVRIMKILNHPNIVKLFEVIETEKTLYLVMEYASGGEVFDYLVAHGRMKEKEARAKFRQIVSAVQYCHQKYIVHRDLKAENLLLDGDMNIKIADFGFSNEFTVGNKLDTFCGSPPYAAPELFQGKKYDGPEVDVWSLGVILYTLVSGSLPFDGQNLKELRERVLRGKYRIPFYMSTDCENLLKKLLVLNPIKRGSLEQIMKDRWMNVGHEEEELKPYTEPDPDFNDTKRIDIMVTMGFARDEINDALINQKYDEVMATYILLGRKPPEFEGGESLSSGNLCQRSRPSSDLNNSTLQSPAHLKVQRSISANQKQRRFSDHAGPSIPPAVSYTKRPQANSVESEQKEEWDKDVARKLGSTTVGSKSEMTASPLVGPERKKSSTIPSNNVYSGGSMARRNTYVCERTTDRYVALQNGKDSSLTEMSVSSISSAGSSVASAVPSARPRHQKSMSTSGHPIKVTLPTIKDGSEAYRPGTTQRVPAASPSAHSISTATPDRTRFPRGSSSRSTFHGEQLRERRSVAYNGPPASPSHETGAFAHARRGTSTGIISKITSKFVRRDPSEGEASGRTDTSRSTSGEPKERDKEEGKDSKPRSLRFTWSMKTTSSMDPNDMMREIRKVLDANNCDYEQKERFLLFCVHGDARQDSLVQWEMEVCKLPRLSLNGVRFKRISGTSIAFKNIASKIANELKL
Chain of EGFR (P00533 whole entry): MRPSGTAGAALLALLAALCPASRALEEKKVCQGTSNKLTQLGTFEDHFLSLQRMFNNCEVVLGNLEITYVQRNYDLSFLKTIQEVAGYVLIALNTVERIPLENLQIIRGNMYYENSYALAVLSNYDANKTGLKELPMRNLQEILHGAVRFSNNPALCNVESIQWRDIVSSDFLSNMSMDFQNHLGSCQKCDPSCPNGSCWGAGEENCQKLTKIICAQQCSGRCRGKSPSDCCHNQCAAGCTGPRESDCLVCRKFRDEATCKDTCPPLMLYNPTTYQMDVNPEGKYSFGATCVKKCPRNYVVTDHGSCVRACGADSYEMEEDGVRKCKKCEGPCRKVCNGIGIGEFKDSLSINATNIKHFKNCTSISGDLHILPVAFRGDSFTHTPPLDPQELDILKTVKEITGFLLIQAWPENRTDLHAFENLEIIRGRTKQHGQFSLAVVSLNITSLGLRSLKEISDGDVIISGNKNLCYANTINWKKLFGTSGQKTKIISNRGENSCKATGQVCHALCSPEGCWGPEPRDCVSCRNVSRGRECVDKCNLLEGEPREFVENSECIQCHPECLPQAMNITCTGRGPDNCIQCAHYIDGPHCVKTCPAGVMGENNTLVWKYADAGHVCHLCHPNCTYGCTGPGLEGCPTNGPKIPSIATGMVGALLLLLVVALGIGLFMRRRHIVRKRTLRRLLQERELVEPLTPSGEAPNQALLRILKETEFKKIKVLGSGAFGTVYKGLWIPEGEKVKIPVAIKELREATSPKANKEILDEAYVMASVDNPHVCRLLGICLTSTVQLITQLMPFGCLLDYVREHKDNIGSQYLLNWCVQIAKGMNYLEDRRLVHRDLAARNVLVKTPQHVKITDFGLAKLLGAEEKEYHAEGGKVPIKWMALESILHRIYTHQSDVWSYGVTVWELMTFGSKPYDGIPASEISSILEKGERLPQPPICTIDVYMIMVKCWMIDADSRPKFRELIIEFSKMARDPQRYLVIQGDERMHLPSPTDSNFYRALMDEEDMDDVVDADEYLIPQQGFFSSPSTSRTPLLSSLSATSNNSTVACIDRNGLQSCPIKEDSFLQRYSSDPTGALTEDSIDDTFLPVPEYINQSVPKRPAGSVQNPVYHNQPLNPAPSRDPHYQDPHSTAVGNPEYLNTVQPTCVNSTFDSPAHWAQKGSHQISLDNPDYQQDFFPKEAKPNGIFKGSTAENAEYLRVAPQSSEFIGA
T3 sequence (P28482 whole entry): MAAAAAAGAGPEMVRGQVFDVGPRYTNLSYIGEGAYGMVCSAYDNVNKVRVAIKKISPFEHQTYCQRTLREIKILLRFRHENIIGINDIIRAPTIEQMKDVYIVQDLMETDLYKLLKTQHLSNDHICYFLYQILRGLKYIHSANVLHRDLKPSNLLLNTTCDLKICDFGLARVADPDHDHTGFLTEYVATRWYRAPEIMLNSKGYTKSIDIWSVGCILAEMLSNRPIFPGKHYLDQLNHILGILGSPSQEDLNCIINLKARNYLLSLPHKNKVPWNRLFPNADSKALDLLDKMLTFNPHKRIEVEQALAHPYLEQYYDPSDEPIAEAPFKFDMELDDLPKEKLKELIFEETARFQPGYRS
T6 sequence (Q9BXA7 whole entry): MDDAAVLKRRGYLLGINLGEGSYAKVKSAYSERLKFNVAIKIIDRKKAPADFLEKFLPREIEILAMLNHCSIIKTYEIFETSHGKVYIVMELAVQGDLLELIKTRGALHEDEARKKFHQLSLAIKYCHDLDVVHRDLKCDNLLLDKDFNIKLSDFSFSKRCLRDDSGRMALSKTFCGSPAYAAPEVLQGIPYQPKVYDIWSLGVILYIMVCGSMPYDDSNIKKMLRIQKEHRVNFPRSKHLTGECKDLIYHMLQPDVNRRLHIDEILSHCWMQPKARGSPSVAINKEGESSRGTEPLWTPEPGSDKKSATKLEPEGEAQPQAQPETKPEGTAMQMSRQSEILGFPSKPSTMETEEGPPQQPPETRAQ
T2 sequence (Q9Y6M4 whole entry): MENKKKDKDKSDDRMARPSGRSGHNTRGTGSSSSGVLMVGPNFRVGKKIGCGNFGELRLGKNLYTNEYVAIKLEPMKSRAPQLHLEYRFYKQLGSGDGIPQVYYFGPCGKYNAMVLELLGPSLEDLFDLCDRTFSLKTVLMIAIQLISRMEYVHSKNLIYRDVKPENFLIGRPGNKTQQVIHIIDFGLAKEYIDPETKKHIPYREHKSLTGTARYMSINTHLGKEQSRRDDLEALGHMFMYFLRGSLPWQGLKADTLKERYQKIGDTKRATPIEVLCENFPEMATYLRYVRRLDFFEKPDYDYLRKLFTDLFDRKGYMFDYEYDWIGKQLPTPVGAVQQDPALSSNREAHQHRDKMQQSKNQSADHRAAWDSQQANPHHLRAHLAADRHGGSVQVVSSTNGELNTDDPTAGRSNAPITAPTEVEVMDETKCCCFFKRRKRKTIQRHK
T1 sequence (O96017 whole entry): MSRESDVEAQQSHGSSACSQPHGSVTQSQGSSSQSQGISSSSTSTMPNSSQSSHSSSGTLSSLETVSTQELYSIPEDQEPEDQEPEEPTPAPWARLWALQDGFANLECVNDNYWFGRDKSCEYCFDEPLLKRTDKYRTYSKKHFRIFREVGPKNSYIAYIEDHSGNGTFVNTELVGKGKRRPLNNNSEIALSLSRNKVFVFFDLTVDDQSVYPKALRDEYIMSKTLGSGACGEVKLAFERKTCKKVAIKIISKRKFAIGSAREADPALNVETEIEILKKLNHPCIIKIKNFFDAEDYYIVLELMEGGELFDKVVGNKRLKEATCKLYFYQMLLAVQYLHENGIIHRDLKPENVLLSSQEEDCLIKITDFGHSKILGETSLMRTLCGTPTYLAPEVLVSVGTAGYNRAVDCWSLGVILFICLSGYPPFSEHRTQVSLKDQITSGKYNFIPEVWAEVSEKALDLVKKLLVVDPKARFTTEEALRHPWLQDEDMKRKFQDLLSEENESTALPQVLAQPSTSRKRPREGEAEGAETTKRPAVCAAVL

An inhibition at 1 µM ([1]; replicate Data1) of -3.03%, an inhibition at 1 µM ([1]; replicate Data2) of 11.3% and an inhibition at 1 µM ([2]; replicate Data1) of 15.8% were found for `Nc1cn2cc(-c3cnc4c(c3)N(C(=O)OC3CCCCC3)CCO4)ccc2n1` [Zharp1-163] in this work. For the same compound, the inhibition at 1 µM ([2]; replicate Data2) was 1.85%, the inhibition at 1 µM ([3]; replicate Data1) was 14.1% and the inhibition at 1 µM ([3]; replicate Data2) was 20.6%. For the same compound, the inhibition at 1 µM ([4]; replicate Data1) was -2.16%, the inhibition at 1 µM ([4]; replicate Data2) was -4.3% and the inhibition at 1 µM ([5]; replicate Data1) was -8.55%. The inhibition at 1 µM ([5]; replicate Data2) was -9.14%, the inhibition at 1 µM ([6]; replicate Data1) was 17.9% and the inhibition at 1 µM ([6]; replicate Data2) was 10.3%. For the same compound, the inhibition at 1 µM ([7]; replicate Data1) was -8.23%, the inhibition at 1 µM ([7]; replicate Data2) was -5.7% and the inhibition at 1 µM ([8]; replicate Data1) was -11.5%. The inhibition at 1 µM ([8]; replicate Data2) was 4.11%, the inhibition at 1 µM ([9]; replicate Data1) was 18.3% and the inhibition at 1 µM ([9]; replicate Data2) was 3.81%. It also gave an inhibition at 1 µM ([10]; replicate Data1) of -0.64%, an inhibition at 1 µM ([10]; replicate Data2) of 3.94% and an inhibition at 1 µM ([11]; replicate Data1) of 9.18%. The inhibition at 1 µM ([11]; replicate Data2) was 2.94%, the inhibition at 1 µM ([12]; replicate Data1) was 2.59% and the inhibition at 1 µM ([12]; replicate Data2) was 4.57%. It also gave an inhibition at 1 µM ([13]; replicate Data1) of 2.07%, an inhibition at 1 µM ([13]; replicate Data2) of -4.35% and an inhibition at 1 µM ([14]; replicate Data1) of -0.22%. It also gave an inhibition at 1 µM ([14]; replicate Data2) of 2.05%.
